# Test system: CYP1A2
# Experiment: MEROD assay in live Hepa1c1c7 cells incubated with test compound (CYP1A2 induction)
# Format: cell-based, mouse
# Conditions: live Hepa1c1c7 cells incubated with 10 μM compound
# Description: FIG. 1 illustrates how caffeine is primarily metabolized to paraxanthine via CYP1A2 enzyme in a human, according to some embodiments. The MEROD (methoxyresorufin-O-demethylase) assay measures the activity of the enzyme (CYP1A2) that converts methoxyresorufin (probe substrate) to resorufin (demethylation) in the presence of NADPH. The resulting resorufin concentration can be measured using a fluorescence reader by setting the excitation and emission wavelengths at 544 and 590 nm, respectively.
# For MEROD assay in live cells, Hepa1c1c7 cells were cultured in either 6-well or 24-well-plates. For the 24-well plate experiment, after confluent cells were incubated for approximately 20 hours with either resorufin, nitro-resorufin, chloro-resorufin, 3-MC or DMSO (in triplicates), culture media was removed and 180 μL fresh culture media containing […] methoxyresorufin was added per well. After 1 hour incubation at 37° C., […] aliquot was taken from each well and the formation of resorufin was measured by fluorescence. […] After 5 hours incubation at 37° C., 100 μL aliquot was taken from each well, centrifuged at 12,000 g at RT for ˜5 min and the supernatants were placed into wells of a 96-well fluorescence plate and the formation of resorufin was measured by fluorescence.
compound,measurement,value
O=c1c2ccc(Cl)cc2nc2n1CCc1c-2[nH]c2ccccc12 [chloro-rutaecarpine],formation of resorufin (MEROD),no marked difference
